Source: ChEMBL document CHEMBL5576121, “Halogen Bonding Hot Spots as a Constraint in Virtual Screening: A Case Study of 5-HT7R” (J Med Chem, 2024)

Target: 5-hydroxytryptamine receptor 7 (Homo sapiens, UniProt P34969)
Experiment: Displacement of [3H]-5-CT from human 5-HT7b receptor expressed in HEK293 cell membranes incubated for 1 hr by Microbeta Topcount instrument based analysis

Sequence of 5-hydroxytryptamine receptor 7 (P34969 whole entry): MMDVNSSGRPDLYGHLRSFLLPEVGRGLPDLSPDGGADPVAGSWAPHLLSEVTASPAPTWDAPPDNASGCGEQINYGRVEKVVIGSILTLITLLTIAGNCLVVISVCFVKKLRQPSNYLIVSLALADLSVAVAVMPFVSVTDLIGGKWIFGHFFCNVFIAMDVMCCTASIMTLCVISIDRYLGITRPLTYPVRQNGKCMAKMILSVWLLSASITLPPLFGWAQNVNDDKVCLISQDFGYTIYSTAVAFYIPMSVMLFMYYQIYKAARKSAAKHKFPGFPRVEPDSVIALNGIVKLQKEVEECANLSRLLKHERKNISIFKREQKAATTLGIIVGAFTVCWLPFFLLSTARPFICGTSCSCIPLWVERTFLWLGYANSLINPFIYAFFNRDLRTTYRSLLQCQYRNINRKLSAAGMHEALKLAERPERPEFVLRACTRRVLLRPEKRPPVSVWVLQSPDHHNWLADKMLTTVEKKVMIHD

SMILES	Ki
OC(COc1ccc2c(c1)CCC2)CN1CCN(c2cccc(Cl)c2)CC1 (stereo not drawn)	285 nM
CCCc1ccc(OCC(O)CN2CCN(c3ccccc3)CC2)cc1 (stereo not drawn)	1090 nM
CCC(=O)N1c2ccccc2CC1C(=O)NCCCN1CCN(c2ccccc2)CC1 (stereo not drawn)	7130 nM
CCC(=O)N1c2ccccc2CC1C(=O)NCCCN1CCN(c2cccc(Cl)c2)CC1 (stereo not drawn)	687 nM
CC(=O)c1ccc(OCC(O)CN2CCN(c3ccc(Cl)cc3)CC2)cc1 (stereo not drawn)	7130 nM
OC(COc1ccc2c(c1)CCC2)CN1CCN(c2ccccc2)CC1 (stereo not drawn)	587 nM
CC(=O)c1ccc(OCC(O)CN2CCN(c3ccccc3Cl)CC2)cc1 (stereo not drawn)	4670 nM
CCCc1ccc(OCC(O)CN2CCN(c3cccc(Cl)c3)CC2)cc1 (stereo not drawn)	360 nM
COc1ccc(OC)c(COCC(O)CN2CCN(c3ccccc3)CC2)c1 (stereo not drawn)	2300 nM
COc1ccc(OC)c(COCC(O)CN2CCN(c3cccc(Cl)c3)CC2)c1 (stereo not drawn)	65 nM
OC(COc1ccc2c(c1)CCC2)CN1CCN(c2ccc(Cl)cc2)CC1 (stereo not drawn)	1520 nM
CC(=O)c1ccc(OCC(O)CN2CCN(c3cccc(Cl)c3)CC2)cc1 (stereo not drawn)	471 nM
CC(=O)c1ccc(OCC(O)CN2CCN(c3ccccc3)CC2)cc1 (stereo not drawn)	1970 nM
